EPA's ToxRefDB 2

Key:
rat [1] = conditions: Combined chronic toxicity/carcinogenicity; fischer; Oral; Feed; dose end: 104 week; group: systemic; systemic / pathology microscopic / stomach / adenocarcinoma + systemic / pathology microscopic / stomach / adenoma + systemic / in life …
mouse [2] = conditions: Carcinogenicity; b6c3f1; Oral; Feed; dose end: 96 week; group: systemic; systemic / pathology microscopic / stomach / adenoma + systemic / in life observation / body weight / body weight + systemic / in life …
rabbit [3] = conditions: Prenatal developmental toxicity study, new zealand white, Oral, Gavage/Intubation, dose end: 19 GD
rat [4] = conditions: Prenatal developmental toxicity study; sprague dawley; Oral; Gavage/Intubation; dose end: 17 GD; group: maternal; systemic / in life observation / clinical signs / [other] + systemic / in life observation / clinical signs / ataxia + systemic / in life …
rat [5] = conditions: Peri- and post-natal toxicity study (Segment III), sprague dawley, Oral, Gavage/Intubation, dose end: 25 PND
rat [6] = conditions: Multigenerational reproductive toxicity study; sprague dawley; Oral; Gavage/Intubation; dose end: 1 generation; group: parental; systemic / in life observation / body weight / body weight gain + systemic / in life observation / clinical signs / skin discoloration + …
dog [7] = conditions: Chronic toxicity, beagle, Oral, Feed, dose end: 394 day, group: systemic
dog [8] = conditions: Subchronic oral toxicity in nonrodent, beagle, Feed, dose end: 98 day, group: systemic
rat [9] = conditions: Subchronic oral toxicity in rodents, wistar, Feed, dose end: 90 day, group: systemic
rat [10] = conditions: Multigenerational reproductive toxicity study, wistar, Oral, Feed, dose end: 2 generation
rat [11] = conditions: Prenatal developmental toxicity study, wistar, Oral, Gavage/Intubation, dose end: 20 GD
mouse [12] = conditions: Carcinogenicity, cd1, Oral, Feed, dose end: 78 week, group: systemic
mouse [13] = conditions: Subchronic oral toxicity in rodents, cd1, Feed, dose end: 90 day, group: systemic, systemic / organ weight / liver / relative to body weight + systemic / organ weight / liver / absolute + systemic / clinical chemistry / …
rat [14] = conditions: Prenatal developmental toxicity study, sprague dawley, Oral, Gavage/Intubation, dose end: 17 GD
dog [15] = conditions: Subchronic oral toxicity in nonrodent, beagle, Capsule, dose end: 14 week, group: systemic
dog [16] = conditions: Chronic toxicity, beagle, Oral, Capsule, dose end: 52 week, group: systemic
rat [17] = conditions: Subchronic oral toxicity in rodents, sprague dawley, Gavage/Intubation, dose end: 14 week, group: systemic
rat [18] = conditions: Multigenerational reproductive toxicity study, sprague dawley, Oral, Feed, dose end: 2 generation
rat [19] = conditions: Combined chronic toxicity/carcinogenicity; sprague dawley; Oral; Feed; dose end: 104 week; group: systemic; systemic / in life observation / body weight / body weight + systemic / in life observation / body weight / body weight gain + systemic / …
rabbit [20] = conditions: Prenatal developmental toxicity study, new zealand white, Oral, Gavage/Intubation, dose end: 18 GD
mouse [21] = conditions: Prenatal developmental toxicity study, other, Oral, Gavage/Intubation, dose end: 15 GD
rat [22] = conditions: Subchronic oral toxicity in rodents, sprague dawley, Feed, dose end: 90 day, group: systemic, systemic / in life observation / body weight / body weight gain + systemic / pathology microscopic / liver / hypertrophy + systemic / …
mouse [23] = conditions: Carcinogenicity, cd1, Oral, Feed, dose end: 105 week, group: systemic
[24] = group: developmental, developmental / developmental landmark / incisor eruption / incisor eruption + developmental / developmental malformation / bone / delayed …
[25] = group: maternal, systemic / in life observation / body weight / body weight + systemic / in life observation / clinical signs / [other] + systemic / in life …
[26] = group: maternal, reproductive / offspring survival early / dead fetuses / dead fetuses
[27] = group: parental, systemic / in life observation / clinical signs / skin discoloration + systemic / in life observation / clinical signs / urine, …
[28] = systemic / clinical chemistry / alkaline phosphatase (alp/alk) / alkaline phosphatase (alp/alk) + systemic / clinical chemistry / gamma …
[29] = systemic / pathology microscopic / kidney / pigmentation
[30] = systemic / in life observation / body weight / body weight gain + systemic / in life observation / food consumption / food efficiency + …
[31] = systemic / hematology / hemoglobin (hgb) / hemoglobin (hgb)
[32] = systemic / in life observation / body weight / body weight + systemic / in life observation / body weight / body weight gain + systemic / in…
[33] = group: offspring, developmental / developmental malformation / bone / incomplete ossification + developmental / developmental landmark / preputial separation…
[34] = group: parental, systemic / in life observation / body weight / body weight gain
[35] = group: developmental, developmental / developmental malformation / bone / incomplete ossification
[36] = group: maternal, systemic / organ weight / liver / absolute + systemic / organ weight / liver / relative to body weight
[37] = systemic / clinical chemistry / alanine aminotransferase (alt/sgpt) / alanine aminotransferase (alt/sgpt) + systemic / clinical chemistry / …
[38] = group: developmental, systemic / in life observation / body weight / fetal weight
[39] = group: maternal, systemic / in life observation / body weight / body weight gain + systemic / in life observation / food consumption / food consumption
[40] = group: maternal, systemic / in life observation / body weight / body weight gain + systemic / in life observation / food consumption / food consumption + …
[41] = systemic / hematology / anemia / anemia - nos + systemic / hematology / erythrocyte (rbc) count differential / erythrocyte (rbc) + systemic…
[42] = systemic / organ weight / liver / absolute + systemic / organ weight / liver / relative to body weight + systemic / pathology microscopic / …
[43] = systemic / pathology microscopic / gallbladder / discolored + systemic / pathology microscopic / gallbladder / vacuolization cytoplasmic
[44] = systemic / in life observation / clinical signs / alopecia
[45] = systemic / pathology microscopic / kidney / calculus + systemic / pathology microscopic / kidney / hyperplasia + systemic / pathology …
[46] = group: offspring, systemic / in life observation / body weight / offspring (pup) weight
[47] = group: parental, systemic / in life observation / body weight / body weight gain + systemic / in life observation / food consumption / food consumption
[48] = group: parental, systemic / in life observation / food consumption / food consumption
[49] = group: developmental, developmental / developmental malformation / bone / incomplete ossification + developmental / developmental malformation / lung / abnormal …
[50] = group: maternal, reproductive / reproductive performance / resorptions / resorptions + systemic / in life observation / body weight / body weight gain + …
[51] = systemic / in life observation / mortality / mortality

Oc1ccccc1O [Catechol]
LEL (rat [1]): 400 mg/kg/day | LOAEL (rat [1]): > 400 mg/kg/day | NEL (rat [1]): < 400 mg/kg/day | NOAEL (rat [1]): ≥ 400 mg/kg/day | LEL (mouse [2]): 1200 mg/kg/day | LOAEL (mouse [2]): > 1200 mg/kg/day | NEL (mouse [2]): < 1200 mg/kg/day | NOAEL (mouse [2]): ≥ 1200 mg/kg/day

CCc1cc(S(=O)(=O)O)c2cc(C(C)C)cccc1-2 [Egualen]
LEL (rabbit [3]; [24]): 135 mg/kg/day | LOAEL (rabbit [3]; [24]): > 135 mg/kg/day | NEL (rabbit [3]; [24]): 45 mg/kg/day | NOAEL (rabbit [3]; [24]): ≥ 135 mg/kg/day | LEL (rabbit [3]; [25]): 135 mg/kg/day | LOAEL (rabbit [3]; [25]): > 135 mg/kg/day | NEL (rabbit [3]; [25]): 45 mg/kg/day | NOAEL (rabbit [3]; [25]): ≥ 135 mg/kg/day | LEL (rat [4]): 77 mg/kg/day | LOAEL (rat [4]): > 600 mg/kg/day | NEL (rat [4]): 10 mg/kg/day | NOAEL (rat [4]): ≥ 600 mg/kg/day | LEL (rat [5]; [26]): 300 mg/kg/day | LOAEL (rat [5]; [26]): > 300 mg/kg/day | NEL (rat [5]; [26]): 55 mg/kg/day | NOAEL (rat [5]; [26]): ≥ 300 mg/kg/day | LEL (rat [5]; [27]): 55 mg/kg/day | LOAEL (rat [5]; [27]): > 300 mg/kg/day | NEL (rat [5]; [27]): 10 mg/kg/day | NOAEL (rat [5]; [27]): ≥ 300 mg/kg/day | LEL (rat [6]): 200 mg/kg/day | LOAEL (rat [6]): > 200 mg/kg/day | NEL (rat [6]): 50 mg/kg/day | NOAEL (rat [6]): ≥ 200 mg/kg/day

CO/N=C(/C1=NOCCO1)c1ccccc1Oc1ncnc(Oc2ccccc2Cl)c1F [Fluoxastrobin]
LOAEL (dog [7]; [28]): 7.7 mg/kg/day | NOAEL (dog [7]; [28]): 1.5 mg/kg/day | LEL (dog [7]; [29]): 0.7 mg/kg/day | NEL (dog [7]; [29]): < 0.7 mg/kg/day | LEL (dog [8]; systemic / in life observation / body weight / body weight gain + systemic / in life observation / food consumption / food efficiency): 3 mg/kg/day | LOAEL (dog [8]; [30]): 24.2 mg/kg/day | NEL (dog [8]; [30]): 1.4 mg/kg/day | NOAEL (dog [8]; [30]): 3 mg/kg/day | LEL (rat [9]; [31]): 21.5 mg/kg/day | NEL (rat [9]; [31]): < 21.5 mg/kg/day | LOAEL (rat [9]; [32]): 580 mg/kg/day | NOAEL (rat [9]; [32]): 70.4 mg/kg/day | LEL (rat [10]; [33]): 862 mg/kg/day | LOAEL (rat [10]; [33]): 862 mg/kg/day | NEL (rat [10]; [33]): 77.4 mg/kg/day | NOAEL (rat [10]; [33]): 77.4 mg/kg/day | LEL (rat [10]; [34]): 665 mg/kg/day | LOAEL (rat [10]; [34]): 665 mg/kg/day | NEL (rat [10]; [34]): 70 mg/kg/day | NOAEL (rat [10]; [34]): 70 mg/kg/day | LEL (rat [11]; [35]): 300 mg/kg/day | LOAEL (rat [11]; [35]): > 1000 mg/kg/day | NEL (rat [11]; [35]): 100 mg/kg/day | NOAEL (rat [11]; [35]): ≥ 1000 mg/kg/day | LEL (rat [11]; [36]): 1000 mg/kg/day | LOAEL (rat [11]; [36]): > 1000 mg/kg/day | NEL (rat [11]; [36]): 300 mg/kg/day | NOAEL (rat [11]; [36]): ≥ 1000 mg/kg/day | LOAEL (mouse [12]; [37]): > 776 mg/kg/day | NEL (mouse [12]; [37]): 19 mg/kg/day | NOAEL (mouse [12]; [37]): ≥ 776 mg/kg/day | LEL (mouse [12]; systemic / in life observation / body weight / body weight + systemic / organ weight / liver / relative to body weight): 135 mg/kg/day | LEL (mouse [13]): 81.1 mg/kg/day | LOAEL (mouse [13]): > 1300 mg/kg/day | NEL (mouse [13]): < 81.1 mg/kg/day | NOAEL (mouse [13]): ≥ 1300 mg/kg/day

c1ccc2[nH]c(-c3cscn3)nc2c1 [Thiabendazole]
LEL (rat [14]; [38]): 40 mg/kg/day | LOAEL (rat [14]; [38]): 40 mg/kg/day | NEL (rat [14]; [38]): 10 mg/kg/day | NOAEL (rat [14]; [38]): 10 mg/kg/day | LEL (rat [14]; [39]): 40 mg/kg/day | LOAEL (rat [14]; [39]): 40 mg/kg/day | NEL (rat [14]; [40]): 10 mg/kg/day | NOAEL (rat [14]; [40]): 10 mg/kg/day | LOAEL (dog [15]; [41]): > 150 mg/kg/day | NEL (dog [15]; [41]): 35 mg/kg/day | NOAEL (dog [15]; [41]): ≥ 150 mg/kg/day | LEL (dog [15]; systemic / in life observation / clinical signs / emesis + systemic / pathology microscopic / gallbladder / vacuolization cytoplasmic): 75 mg/kg/day | LOAEL (dog [16]; [42]): 40 mg/kg/day | NOAEL (dog [16]; [42]): 10 mg/kg/day | LEL (dog [16]; [43]): 10 mg/kg/day | NEL (dog [16]; [43]): < 10 mg/kg/day | LEL (rat [17]; [44]): 25 mg/kg/day | NEL (rat [17]; [44]): < 25 mg/kg/day | LOAEL (rat [17]; [45]): 100 mg/kg/day | NOAEL (rat [17]; [45]): 25 mg/kg/day | LEL (rat [18]; [46]): 90 mg/kg/day | LOAEL (rat [18]; [46]): 90 mg/kg/day | NEL (rat [18]; [46]): 30 mg/kg/day | NOAEL (rat [18]; [46]): 30 mg/kg/day | LOAEL (rat [18]; [47]): 30 mg/kg/day | NOAEL (rat [18]; [47]): 10 mg/kg/day | LEL (rat [18]; [48]): 10 mg/kg/day | NEL (rat [18]; [48]): < 10 mg/kg/day | LEL (rat [19]): 30.1 mg/kg/day | LOAEL (rat [19]): 30.1 mg/kg/day | NEL (rat [19]): 10.1 mg/kg/day | NOAEL (rat [19]): 10.1 mg/kg/day | LEL (rabbit [20]; [49]): 600 mg/kg/day | LOAEL (rabbit [20]; [49]): 600 mg/kg/day | NEL (rabbit [20]; [49]): 150 mg/kg/day | NOAEL (rabbit [20]; [49]): 150 mg/kg/day | LEL (rabbit [20]; [50]): 600 mg/kg/day | LOAEL (rabbit [20]; [50]): 600 mg/kg/day | NEL (rabbit [20]; [50]): 150 mg/kg/day | NOAEL (rabbit [20]; [50]): 150 mg/kg/day | LEL (mouse [21]; [38]): 100 mg/kg/day | LOAEL (mouse [21]; [38]): 100 mg/kg/day | NEL (mouse [21]; [38]): 25 mg/kg/day | NOAEL (mouse [21]; [38]): 25 mg/kg/day | LEL (mouse [21]; [39]): 100 mg/kg/day | LOAEL (mouse [21]; [39]): 100 mg/kg/day | NEL (mouse [21]; [39]): 25 mg/kg/day | NOAEL (mouse [21]; [39]): 25 mg/kg/day | LEL (rat [22]): 37 mg/kg/day | LOAEL (rat [22]): 37 mg/kg/day | NEL (rat [22]): 9.4 mg/kg/day | NOAEL (rat [22]): 9.4 mg/kg/day | LOAEL (mouse [23]; systemic / in life observation / body weight / body weight gain): 92 mg/kg/day | LEL (mouse [23]; [51]): 6.95 mg/kg/day | NEL (mouse [23]; [51]): < 6.95 mg/kg/day | NOAEL (mouse [23]; systemic / in life observation / mortality / mortality + systemic / in life observation / body weight / body weight gain + systemic / organ …): 36.5 mg/kg/day
